IC50 and EPSA data for nine molecules are collected here from patent US20260022143A1, “Cyclic Peptide Inhibitors of IL-23” (JANSSEN PHARMACEUTICA NV, priority 2022, published 2026).

Like-named read-outs stand apart in the source and are kept apart here. Starred links: 1 amine or outer side, 2 acyl side, 3 side chain; linkers in the order of their positions; H or OH if unused. Positions of bridges follow the written chain, without caps; N, C: chain ends. Non-standard residues stand in square brackets, D forms with d. Residues, ends and D or L forms follow the SMILES beside them. Groups on a side chain read outwards from the residue. ξ: configuration not given here. *: point of attachment. X48 = CCCCCCCCCCCC(=O)N[C@@H](CCC(=O)*)C(=O)N[C@H](CC(=O)O)C[N+](C)(C)C; Me3N+(CH2)2O(CH2)2O(CH2)2CO = C[N+](C)(C)CCOCCOCCC(=O)*; CH2CH2OCH2CH2OCH2CH2NMe3+ = C[N+](C)(C)CCOCCOCC*; dTrp(7-Me) = Cc1cccc2c(C[C@@H](N)C(=O)O)c[nH]c12; Trp(7-Me) = Cc1cccc2c(C[C@H](N)C(=O)O)c[nH]c12; d(hLys(Me3)) = C[N+](C)(C)CCCCC[C@@H](N)C(=O)O; Abu(4-yl) = O=C([C@H](CC[*:3])N[*:1])[*:2]; dLys(Me3) = C[N+](C)(C)CCCC[C@@H](N)C(=O)O; γGlu = O=C(O)[C@H](CCC(=O)[*:2])N[*:1]; 2Nal = N[C@@H](Cc1ccc2ccccc2c1)C(=O)O; AEF = NCCOc1ccc(C[C@H](N)C(=O)O)cc1; 3Pal = N[C@@H](Cc1cccnc1)C(=O)O; Myristoyl = CCCCCCCCCCCCCC(=O)*; Lys(Me) = CNCCCC[C@H](N)C(=O)O; Pen = CC(C)(S)[C@H](N)C(=O)O; ξLys(Me) = CNCCCCC(N)C(=O)O; αMeC = C[C@](N)(CS)C(=O)O; Thp = NC1(C(=O)O)CCOCC1; X3 = C[N+](C)(C)CCCCC*; AEEA = NCCOCCOCC(=O)O; Sar = CNCC(=O)O Some results are limits rather than exact numbers.

One data set concerns the target T1, IL-23R (Homo sapiens, UniProt Q5VWK5).
T1 construct: host or cells: HEK293
T1 sequence (Q5VWK5 24-629): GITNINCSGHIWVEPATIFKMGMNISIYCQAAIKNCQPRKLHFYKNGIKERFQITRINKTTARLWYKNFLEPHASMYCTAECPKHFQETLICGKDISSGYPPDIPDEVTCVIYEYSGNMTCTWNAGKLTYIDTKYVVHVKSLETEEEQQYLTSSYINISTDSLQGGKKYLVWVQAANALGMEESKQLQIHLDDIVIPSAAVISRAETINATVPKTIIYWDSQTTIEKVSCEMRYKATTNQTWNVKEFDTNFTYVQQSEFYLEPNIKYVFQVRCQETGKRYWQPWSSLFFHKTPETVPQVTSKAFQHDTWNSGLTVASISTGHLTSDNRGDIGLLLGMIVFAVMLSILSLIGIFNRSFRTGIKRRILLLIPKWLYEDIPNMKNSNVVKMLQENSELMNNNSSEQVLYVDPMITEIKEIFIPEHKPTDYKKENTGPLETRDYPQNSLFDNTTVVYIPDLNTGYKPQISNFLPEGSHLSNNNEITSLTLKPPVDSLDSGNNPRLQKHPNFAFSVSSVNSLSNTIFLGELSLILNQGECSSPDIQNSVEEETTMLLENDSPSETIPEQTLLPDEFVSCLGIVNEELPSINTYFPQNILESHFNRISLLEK
Nature of the data set: IL23R Reporter Assay. The class given is cell-based. To be noted: HEK293 cells containing IL-23R, IL-12RP1 and STAT-inducible firefly luciferase reporter; 10 ng/mL IL-23 (EC90); 5 h at 37° C.; read-out: IL23R Reporter Assay. (In general: Reporter assays use an easily measured gene product as a stand-in for the process of interest.)

Data set [1] in a line: Exposed Polar Surface Area (EPSA). The class given is physicochemical. The note with it: SFC on Chirex 3014 column, sample 1 mM DMSO stock. The procedure, abridged: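 Compounds, as 1 mM DMSO stock, were injected in duplicate onto an SFC Chirex 3014 column at 35 °C and eluted with a CO2/methanol (20 mM ammonium formate) gradient. EPSA values in Å^2 were derived from retention times using a linear fit to eight calibration standards, reinjected every 20 compounds.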

On to `CC(=O)N(C)CCCC[C@@H]1NC(=O)[C@H](Cc2c[nH]c3ccccc23)NC(=O)[C@H]([C@@H](C)O)NC(=O)[C@H](CC(=O)N(C)C)NC(=O)[C@@H](NC(=O)CCOCCOCC[N+](C)(C)C)C(C)(C)SSC(C)(C)[C@@H](C(=O)N[C@@H](Cc2ccc(OCCOCCOCC[N+](C)(C)C)cc2)C(=O)N[C@@H](Cc2c[nH]c3ccccc23)C(=O)NC2(C(=O)N[C@@H](CCCCN(C)C(C)=O)C(=O)N[C@@H](CC(N)=O)C(=O)N[C@H]3Cc4cnccc4N(CC(=O)N(C)C)C3=O)CCOCC2)NC1=O` [compound 564, cPEG3aCO-Pen(3)-N(N(Me)2)-T-W-K(NMeAc)-Pen(3)-APEG3F-W-THP-K(NMeAc)-N-3Pya-Sar-CON(Me)2], for which, on IL-23R, the IC50 came to 180 nM. In data set [1] (read-out: EPSA), the EPSA worked out at 153 A^2.

As for `CC(=O)N(C)CCCC[C@@H]1NC(=O)[C@H](Cc2ccccc2)NC(=O)[C@H]([C@@H](C)O)NC(=O)[C@H](CC(=O)N(C)C)NC(=O)[C@@H](NC(=O)CCOCCOCC[N+](C)(C)C)C(C)(C)SSC(C)(C)[C@@H](C(=O)N[C@@H](Cc2ccc(OCCOCCOCC[N+](C)(C)C)cc2)C(=O)N[C@@H](Cc2ccccc2)C(=O)NC2(C(=O)N[C@@H](CCCCN(C)C(C)=O)C(=O)N[C@@H](CC(N)=O)C(=O)N[C@@H](Cc3cccnc3)C(=O)N(C)CC(=O)N(C)C)CCOCC2)NC1=O` [compound 565, cPEG3aCO-Pen(3)-N(N(Me)2)-T-F-K(NMeAc)-Pen(3)-APEG3F-F-THP-K(NMeAc)-N-3Pya-Sar-CON(Me)2] ({Me3N+(CH2)2O(CH2)2O(CH2)2CO}-[Pen]D(NMe2)TF[Lys(Me)](Ac)[Pen]Y(CH2CH2OCH2CH2OCH2CH2NMe3+)F[Thp][Lys(Me)](Ac)N[3Pal][Sar]-NMe2; disulfide 1-6), at IL-23R, the IC50 was > 16600 nM. Moreover, the EPSA in data set [1] (read-out: EPSA) is 144 A^2.

As to `CC(=O)N(C)CCCC[C@@H]1NC(=O)[C@H](CC(C)C)NC(=O)[C@H]([C@@H](C)O)NC(=O)[C@H](CC(=O)N(C)C)NC(=O)[C@@H](NC(=O)CCOCCOCC[N+](C)(C)C)C(C)(C)SSC(C)(C)[C@@H](C(=O)N[C@@H](Cc2ccc(OCCOCCOCC[N+](C)(C)C)cc2)C(=O)N[C@@H](CC(C)C)C(=O)NC2(C(=O)N[C@@H](CCCCN(C)C(C)=O)C(=O)N[C@@H](CC(N)=O)C(=O)N[C@@H](Cc3cccnc3)C(=O)N(C)CC(=O)N(C)C)CCOCC2)NC1=O` [compound 566, cPEG3aCO-Pen(3)-N(N(Me)2)-T-L-K(NMeAc)-Pen(3)-APEG3F-L-THP-K(NMeAc)-N-3Pya-Sar-CON(Me)2] ({Me3N+(CH2)2O(CH2)2O(CH2)2CO}-[Pen]D(NMe2)TL[Lys(Me)](Ac)[Pen]Y(CH2CH2OCH2CH2OCH2CH2NMe3+)L[Thp][Lys(Me)](Ac)N[3Pal][Sar]-NMe2; disulfide 1-6), at IL-23R, the IC50 was > 3320 nM. In data set [1] (read-out: EPSA), the EPSA amounted to 137 A^2.

For the molecule `CC(=O)NCCCC[C@@H]1NC(=O)[C@H](Cc2c[nH]c3ccccc23)NC(=O)[C@H]([C@@H](C)O)NC(=O)[C@H](CC(N)=O)NC(=O)[C@@H](NC(=O)[C@@H](CCCC[N+](C)(C)C)NC(C)=O)CCSC[C@@](C)(C(=O)N[C@@H](Cc2ccc(OCCCCC[N+](C)(C)C)cc2)C(=O)N[C@@H](Cc2ccc3ccccc3c2)C(=O)NC2(C(=O)N[C@@H](CCC(=O)O)C(=O)N[C@@H](CC(N)=O)C(=O)N[C@@H](Cc3cccnc3)C(=O)N(C)CC(N)=O)CCOCC2)NC1=O` [compound 567, MeCO-k(Me)3-Abu(1)-N-T-W-K(Ac)-aMeC(1)-TMAPF-2Nal-THP-E-N-3Pya-Sar-CONH2] (Ac-[dLys(Me3)][Abu(4-yl)]NTWK(Ac)[αMeC]Y(X3)[2Nal][Thp]EN[3Pal][Sar]-NH2; thioether 2-7), the IC50 on IL-23R came to 3.1 nM. The EPSA in data set [1] (read-out: EPSA) turned out to be 172 A^2.

As for `CC(=O)NCCCC[C@@H]1NC(=O)[C@H](Cc2c[nH]c3ccccc23)NC(=O)[C@H]([C@@H](C)O)NC(=O)[C@H](CC(N)=O)NC(=O)[C@@H](NC(=O)[C@@H](CCCNC(=N)N)NC(C)=O)CCSC[C@@](C)(C(=O)N[C@@H](Cc2ccc(OCCCCC[N+](C)(C)C)cc2)C(=O)N[C@@H](Cc2ccc3ccccc3c2)C(=O)NC2(C(=O)N[C@@H](CCCCNC(C)=O)C(=O)N[C@@H](CC(N)=O)C(=O)N[C@@H](Cc3cccnc3)C(=O)N(C)CC(N)=O)CCOCC2)NC1=O` [compound 568, MeCO-r-Abu(1)-N-T-W-K(Ac)-aMeC(1)-TMAPF-2Nal-THP-K(Ac)-N-3Pya-Sar-CONH2] (Ac-[dR][Abu(4-yl)]NTWK(Ac)[αMeC]Y(X3)[2Nal][Thp]K(Ac)N[3Pal][Sar]-NH2; thioether 2-7), the IC50 at IL-23R is 390 nM. The EPSA in data set [1] (read-out: EPSA) was 174 A^2.

`CCCCCCCCCCCCCC(=O)N[C@@H](CCC(=O)NCCOCCOCC(=O)NCCOCCOCC(=O)NCCCC[C@H](NC(=O)[C@H](Cc1ccc2ccccc2c1)NC(=O)[C@H](Cc1ccc(OCCCCC[N+](C)(C)C)cc1)NC(=O)[C@H]1NC(=O)[C@H](CCCCN(C)C(C)=O)NC(=O)[C@H](Cc2c[nH]c3c(C)cccc23)NC(=O)[C@H]([C@@H](C)O)NC(=O)[C@H](CC(=O)N(C)C)NC(=O)[C@@H](NC(=O)[C@@H](CCCCC[N+](C)(C)C)NC(=O)COCCOCCNC(=O)COCCOCCNC(=O)CC[C@H](NC(=O)CCCCCCCCCCCCC)C(=O)O)C(C)(C)SSC1(C)C)C(=O)N[C@@H](CC(N)=O)C(=O)N[C@@H](Cc1cccnc1)C(=O)N(C)CC(=O)N(C)C)C(=O)O` [compound 570, C14gEPEG2PEG2CO-hk(Me)3-Pen(3)-N(N(Me)2)-T-7MeW-K(NMeAc)-Pen(3)-TMAPF-2Nal-K(PEG2PEG2gEC14)-N-3Pya-Sar-CON(Me)2] ({Myristoyl-γGlu-AEEA-AEEA}-[d(hLys(Me3))][Pen]D(NMe2)T[Trp(7-Me)][Lys(Me)](Ac)[Pen]Y(X3)[2Nal]K([AEEA-AEEA-γGlu-Myristoyl])N[3Pal][Sar]-NMe2; disulfide 2-7): the IC50 on IL-23R is 29 nM. Moreover, the EPSA in data set [1] (read-out: EPSA) was determined as 154 A^2.

With `CCCCCCCCCCCC(=O)N[C@@H](CCC(=O)NCCOCCOCC(=O)NCCOCCOCC(=O)NCCCC[C@@H](NC(C)=O)C(=O)N[C@@H]1C(=O)N[C@@H](CC(N)=O)C(=O)N[C@@H]([C@@H](C)O)C(=O)N[C@H](Cc2c[nH]c3c(C)cccc23)C(=O)N[C@@H](CCCCNC(C)=O)C(=O)N[C@H](C(=O)N[C@@H](Cc2ccc(OCCN)cc2)C(=O)N[C@@H](Cc2ccc3ccccc3c2)C(=O)NC2(C(=O)N[C@@H](CCCCNC(C)=O)C(=O)N[C@@H](CC(N)=O)C(=O)N[C@@H](Cc3cccnc3)C(=O)N(C)CC(N)=O)CCOCC2)C(C)(C)SSC1(C)C)C(=O)N[C@H](CC(=O)O)C[N+](C)(C)C` [compound 572, MeCO-canEG2PEG2gE(c)C12-Pen(3)-N-T-7MeW-K(Ac)-Pen(3)-AEF-2Nal-THP-K(Ac)-N-3Pya-Sar-CONH2] (Ac-[dK]([AEEA-AEEA-X48])[Pen]NT[dTrp(7-Me)]K(Ac)[Pen][AEF][2Nal][Thp]K(Ac)N[3Pal][Sar]-NH2; disulfide 2-7), on IL-23R, the IC50 was determined as 5.8 nM. Also, the EPSA in data set [1] (read-out: EPSA) stood at 166 A^2.

Turning to `CC(=O)N(C)CCCCC(NC(=O)C1(NC(=O)[C@H](Cc2ccc3ccccc3c2)NC(=O)[C@H](Cc2ccc(OCCOCCOCC[N+](C)(C)C)cc2)NC(=O)[C@H]2NC(=O)[C@H](CCCCN(C)C(C)=O)NC(=O)[C@H](Cc3c[nH]c4c(C)cccc34)NC(=O)[C@H]([C@@H](C)O)NC(=O)[C@H](CC(=O)N(C)C)NC(=O)[C@@H](NC(=O)CCOCCOCC[N+](C)(C)C)C(C)(C)SSC2(C)C)CCOCC1)C(=O)N[C@@H](CC(N)=O)C(=O)N[C@@H](Cc1ccccc1)C(=O)N(C)CC(=O)N(C)C` (stereo partly drawn) [compound 573, cPEG3aCO-Pen(3)-N(N(Me)2)-T-7MeW-K(NMeAc)-Pen(3)-APEG3F-2Nal-THP-K(NMeAc)-N-F-Sar-CON(Me)2] ({Me3N+(CH2)2O(CH2)2O(CH2)2CO}-[Pen]D(NMe2)T[Trp(7-Me)][Lys(Me)](Ac)[Pen]Y(CH2CH2OCH2CH2OCH2CH2NMe3+)[2Nal][Thp][ξLys(Me)](Ac)NF[Sar]-NMe2; disulfide 1-6), the IC50 on IL-23R is 650 nM. The EPSA in data set [1] (read-out: EPSA) is 153 A^2.

Regarding “cPEG3aCO-k(PEG2PEG2gEC14)-Pen(3)-N(N(Me)2)-T-7MeW-K(NMeAc)-Pen(3)-TMAPF-2Nal-THP-K(NMeAc)-N-3Pya-Sar-CON(Me)2 [compound 379]”, the IC50 on IL-23R was 12 nM. The EPSA in data set [1] is 149.74 Å^2.
